Test results from patent publication US6924309B2 (Children, Youth and Women's Health Service Incorporated, priority 1999, dated 2005).
Converted amounts (≈) assume the structure as drawn. Like-named read-outs stand apart in the source and are kept apart here.

How the values were obtained:
[1] = system: Plasmodium falciparum isolates 3D7, FC27, K+; experiment: Radiometric (3H-hypoxanthine) assay on asexual blood stages of P. falciparum; assay type: cell-based; settings: for EC50: Plasmodium falciparum, read-out: EC50 against P. falciparum
Description: Using the radiometric assay^(36), the effects of the Lx compounds were examined for antimalarial activity. The Plasmodium falciparum isolates used were 3D7, FC27, K^1 and K^+. These were maintained in human blood group O^+ erythrocytes essentially as described previously using RPM-1640 (HEPES modification) supplemented with 0.25% D-glucose, 0.2% Tess buffer (Sigma Chemical Co, Lt Louis, Mo.) and 10% heat inactivated (56° C., 20 min) human blood group AB serum. Cultures were maintained in tissue culture flasks (Corning, N.Y.) at 37° C. under an atmosphere of 1% 2, 5% CO2 in N2. P. falciparum cultures containing approximately 3.0:% parasitaemia were adjusted to 1×10^8 erythrocytes/ml. To 50 μl of the parasite-erythrocyte culture (5×10^6 erythrocytes) in wells of 96-well microdilution plates wvas added 50 μl of the designated concentration of fatty acid or equivalent amounts of solutions or media. The treated cultures were incubated at 37° C. for 4 h and then pulsed with 50 μl (2.5 μCi) of ^3H-hypoxanthine. After a further 18 h incubation the parasites-erythrocytes were harvested onto glass fibre filter papers using a cell harvester. The amount of radioactivity incorporated was measured in a β-counter. The results have been expressed as % inhibition of parasite growth i.e. the dpm in the fatty acid diluent−dpm in the fatty acid treated cultures/dpm in diluent×100.

[2] = Thin film autoxidation of arachidonic acid with compounds 16-19 (HPLC)
Excerpt: Subsequently, the autoxidation of compounds 16-19 and their effects on the autoxidation of arachidonic acid were investigated. In these experiments, a thin film assay method was employed. For each reaction, arachidonic acid was mixed with one of the synthetic compounds 16, 17, 18 or 19 at 1:1 ratio with or without the radical initiator, azobisisobutyronitrile (AIBN). A reverse phase HPLC method was used to simultaneously measure the relative amounts of arachidonic acid and the synthetic compounds 16, 17, 18 or 19 recovered following 60 or 70 hours or 7 days of thin film autoxidation.

[3] = Petri-dish thin film autoxidation of arachidonic acid with thia fatty acids and sulfides (HPLC)
Description: A stock solution in dichioromethane (2 ml) containing arachidonic acid 1 (18 mg) and 3-[(3Z,6Z)-nona-3,6dienylthio]propionic acid 106 (18 mg) was prepared with lauric acid (18 mg) as an internal standard. Samples of the stock solution (100 μl) were added to glass Petri-dishes followed by ethanol (400 μl). After evaporation of the solvent, a well-distributed thin film was formed on each Petri-dish. The Petri-dishes were placed in a desiccator, which was then evacuated, filled with oxygen and stored in the darkness. Dishes were removed from the desiccator after 1, 2, 3, 5 and 7 days. The mixture on each dish was redissolved in diethyl ether and transferred to a 2 ml vial. After evaporation of the solvent, the residue was dissolved in the HPLC mobile phase (100 μl) and 10% of the solution was analysed by HPLC using a reverse phase column (octadecylsilane) (4.6 mm×250 mm, 3 μm) and a refractive index detector.
Autoxidation of arachidonic acid was conducted in the presence of compound 19 and lauric acid. Stock solutions of arachidonic acid, compound 19 and lauric acid in dichloromethane with equal concentrations were added to a 25 ml round-bottomed flask, and the solvent was evaporated to leave a thin film on the internal surface of the flask. The flask was then filled with oxygen and kept in the dark. The percentages of arachidonic acid and compound 19 remaining after 7 days were measured by HPLC. The same assay was carried out simultaneously with several flasks but the results were not reproducible. The variation was attributed to differences in oxygen concentration and the surface area of the thin films formed in the flasks. Therefore, in order to establish a reproducible assay for the analysis of the autoxidation of arachidonic acid, Petri-dishes with uniform size (80 mm in diameter) were used instead of flasks for thin film formation and the oxidation was carried out by placing the Petri-dishes in a dessicator filled with oxygen. To assess this method, thin firms of arachidonic acid with lauric acid as a standard were prepared on six Petri-dishes using identical treatment, and then subjected to oxidation in the same dessicator filled with oxygen. After 24 h, the percentage of arachidonic acid recovered following autoxidation in each Petri-dish was determined by HPLC. […] The advantage of using a Petri-dish over a flask is that the thin films on each Petri-dish are spread over the same area, and each Petri-dish is exposed to oxygen to the same extent.
Using the Petri-dish assay method, the effects of the thia PUFAs and sulfides 106 and 108-111, along with compounds 18, 19 and 3-[(Z,Z,Z)-(octadeca-9,12,15-trienylthio)] propionic acid 112 which were available in the laboratory, on the autoxidation of arachidonic acid, were examined. In addition, the stability of these compounds in the presence of arachidonic acid was also investigated. Arachidonic acid and lauric acid as a standard were mixed with each sulfur compound at different ratios and the mixtures were subjected to thin film autoxidation. The mixtures were analysed by HPLC after 1,2,3,5 and 7 days.

15-LO = biological target: T1, 15-LO (Glycine max, UniProt P08170); experiment: Effect on 15-LO catalysed oxidation of arachidonic acid; assay type: biochemical, soybean
T1 construct: purchased Sigma Chemical Company
T1 sequence (P08170 1-839): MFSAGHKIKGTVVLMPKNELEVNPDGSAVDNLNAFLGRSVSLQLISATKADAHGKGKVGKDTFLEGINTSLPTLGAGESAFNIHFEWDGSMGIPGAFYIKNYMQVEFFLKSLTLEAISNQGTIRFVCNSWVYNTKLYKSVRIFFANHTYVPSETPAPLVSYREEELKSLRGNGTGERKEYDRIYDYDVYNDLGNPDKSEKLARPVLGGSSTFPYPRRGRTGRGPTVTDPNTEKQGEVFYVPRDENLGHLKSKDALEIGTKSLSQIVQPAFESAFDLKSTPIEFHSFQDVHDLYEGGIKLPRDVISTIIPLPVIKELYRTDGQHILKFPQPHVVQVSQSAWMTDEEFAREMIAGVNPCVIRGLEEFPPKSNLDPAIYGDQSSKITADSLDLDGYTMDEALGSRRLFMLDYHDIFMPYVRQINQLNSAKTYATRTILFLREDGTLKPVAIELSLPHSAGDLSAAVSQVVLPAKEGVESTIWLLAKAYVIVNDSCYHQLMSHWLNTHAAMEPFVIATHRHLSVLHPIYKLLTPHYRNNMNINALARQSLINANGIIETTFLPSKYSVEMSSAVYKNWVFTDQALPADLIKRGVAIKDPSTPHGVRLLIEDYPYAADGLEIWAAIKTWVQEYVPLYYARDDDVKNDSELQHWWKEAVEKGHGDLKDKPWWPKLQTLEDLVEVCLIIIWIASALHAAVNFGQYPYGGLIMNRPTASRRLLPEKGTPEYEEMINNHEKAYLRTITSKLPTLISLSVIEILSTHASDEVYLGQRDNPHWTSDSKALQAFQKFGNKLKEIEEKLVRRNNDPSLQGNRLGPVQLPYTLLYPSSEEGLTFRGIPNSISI

[4] = ratio 2:1, with AIBN at 10% the amount of arachidonic acid, 1 day
[5] = ratio 2:1, with AIBN at 10% the amount of arachidonic acid, 2 days
[6] = ratio 2:1, with AIBN at 10% the amount of arachidonic acid, 3 days
[7] = ratio 2:1, with AIBN at 10% the amount of arachidonic acid, 5 days
[8] = ratio 2:1, with AIBN at 10% the amount of arachidonic acid, 7 days
[9] = ratio arachidonic acid:compound 1:1, 1 day
[10] = ratio arachidonic acid:compound 1:1, 2 days
[11] = ratio arachidonic acid:compound 1:1, 3 days
[12] = ratio arachidonic acid:compound 1:1, 5 days
[13] = ratio arachidonic acid:compound 1:1, 7 days
[14] = ratio arachidonic acid:compound 2:1, 1 day
[15] = ratio arachidonic acid:compound 2:1, 2 days
[16] = ratio arachidonic acid:compound 2:1, 3 days
[17] = ratio arachidonic acid:compound 2:1, 5 days
[18] = ratio arachidonic acid:compound 2:1, 7 days
[19] = ratio arachidonic acid:compound 10:1, 1 day
[20] = ratio arachidonic acid:compound 10:1, 2 days
[21] = ratio arachidonic acid:compound 10:1, 3 days

With `CC/C=C\C/C=C\C/C=C\C/C=C\C/C=C\C/C=C\CCC(=O)O` [22:6n-3, docosahexaenoic acid, reference compound] the EC50 ([1]; 3D7, isolate FC27) was 12 µg/mL (≈ 36.5 µM), the EC50 ([1]; 3D7, isolate K+) was 4 µg/mL (≈ 12.2 µM) and the “Reduction of antimalarial activity by human serum” value ([1]; compound 20 μg/ml, presence of human serum) was 85%.
With `CCCCC/C=C\C/C=C\C/C=C\C/C=C\CCCCSCCC(=O)O` [Compound 19] the “Percentage of arachidonic acid recovered in the presence of the compound” value (shortened to “Percentage of arachidonic acid recovered”) ([2]; ratio 1:1, 10% AIBN 60 h) was 100%, the “Percentage of compound recovered (with arachidonic acid)” value (from here on “Percentage of compound recovered”) ([2]; ratio 1:1, 10% AIBN 60 h) was 96% and the “Percentage of arachidonic acid recovered” value ([2]; ratio 1:1, no additive 70 h) was 101%. The “Percentage of compound recovered” value ([2]; ratio 1:1, no additive 70 h) was 98%, the “Percentage of arachidonic acid recovered” value ([2]; ratio 1:1, no additive 7 day) was 102% and the “Percentage of compound recovered” value ([2]; ratio 1:1, no additive 7 day) was 96%. The “Autoxidation of arachidonic acid in the presence of the compound (in words)” value ([2]; ratio 1:1, with or without AIBN) was “completely inhibited”, the “Antioxidant effect on autoxidation of arachidonic acid (in words)” value (“Antioxidant effect on autoxidation” for short) [3] was “effective antioxidants” and the “Antioxidant effect on autoxidation” value ([3]; 1:1 ratio with arachidonic acid) was “almost complete prevention of autoxidation”. For the same compound, the “Antioxidant effect on autoxidation” value ([3]; compound at one-tenth that of arachidonic acid) was “very slow over the first 3 days”, the “Arachidonic acid (%) recovered following autoxidation in the presence of the compound” value [3, 4] was 100% and the “Compound (%) recovered following autoxidation with arachidonic acid” value [3, 4] was 98%. The “Arachidonic acid (%) recovered following autoxidation in the presence of the compound” value [3, 5] was 98%, the “Compound (%) recovered following autoxidation with arachidonic acid” value [3, 5] was 95% and the “Arachidonic acid (%) recovered following autoxidation in the presence of the compound” value [3, 6] was 94%. The “Compound (%) recovered following autoxidation with arachidonic acid” value [3, 6] was 80%, the “Arachidonic acid (%) recovered following autoxidation in the presence of the compound” value [3, 7] was 49% and the “Compound (%) recovered following autoxidation with arachidonic acid” value [3, 7] was 47%. The “Arachidonic acid (%) recovered following autoxidation in the presence of the compound” value [3, 8] was 35%, the “Compound (%) recovered following autoxidation with arachidonic acid” value [3, 8] was 43% and the “Arachidonic acid (%) recovered following autoxidation in the presence of the compound” value [3, 9] was 99%. For the same compound, the “Compound (%) recovered following autoxidation with arachidonic acid” value [3, 9] was 99%, the “Arachidonic acid (%) recovered following autoxidation in the presence of the compound” value [3, 10] was 100% and the “Compound (%) recovered following autoxidation with arachidonic acid” value [3, 10] was 100%. The “Arachidonic acid (%) recovered following autoxidation in the presence of the compound” value [3, 11] was 99%, the “Compound (%) recovered following autoxidation with arachidonic acid” value [3, 11] was 99% and the “Arachidonic acid (%) recovered following autoxidation in the presence of the compound” value [3, 12] was 99%. For the same compound, the “Compound (%) recovered following autoxidation with arachidonic acid” value [3, 12] was 98%, the “Arachidonic acid (%) recovered following autoxidation in the presence of the compound” value [3, 13] was 98% and the “Compound (%) recovered following autoxidation with arachidonic acid” value [3, 13] was 99%. The “Arachidonic acid (%) recovered following autoxidation in the presence of the compound” value [3, 14] was 100%, the “Compound (%) recovered following autoxidation with arachidonic acid” value [3, 14] was 98% and the “Arachidonic acid (%) recovered following autoxidation in the presence of the compound” value [3, 15] was 99%. For the same compound, the “Compound (%) recovered following autoxidation with arachidonic acid” value [3, 15] was 96%, the “Arachidonic acid (%) recovered following autoxidation in the presence of the compound” value [3, 16] was 100% and the “Compound (%) recovered following autoxidation with arachidonic acid” value [3, 16] was 96%. For the same compound, the “Arachidonic acid (%) recovered following autoxidation in the presence of the compound” value [3, 17] was 98%, the “Compound (%) recovered following autoxidation with arachidonic acid” value [3, 17] was 94% and the “Arachidonic acid (%) recovered following autoxidation in the presence of the compound” value [3, 18] was 97%. For the same compound, the “Compound (%) recovered following autoxidation with arachidonic acid” value [3, 18] was 90%, the “Arachidonic acid (%) recovered following autoxidation in the presence of the compound” value [3, 19] was 99% and the “Compound (%) recovered following autoxidation with arachidonic acid” value [3, 19] was 95%. For the same compound, the “Arachidonic acid (%) recovered following autoxidation in the presence of the compound” value [3, 20] was 99%, the “Compound (%) recovered following autoxidation with arachidonic acid” value [3, 20] was 87% and the “Arachidonic acid (%) recovered following autoxidation in the presence of the compound” value [3, 21] was 87%. For the same compound, the “Compound (%) recovered following autoxidation with arachidonic acid” value [3, 21] was 38%, the “Arachidonic acid (%) recovered following autoxidation in the presence of the compound” value ([3]; ratio arachidonic acid:compound 10:1, 5 days) was 42% and the “Arachidonic acid (%) recovered following autoxidation in the presence of the compound” value ([3]; ratio arachidonic acid:compound 10:1, 7 days) was 17%.
In the case of `CC/C=C\C/C=C\C/C=C\C/C=C\C/C=C\C/C=C\CCC[N+](=O)[O-]` [Lx5, (a11-z)-1-Nitro-4,7,10,13,16,19-docosahexaene], the “Effect on 15-LO catalysed oxidation of AA” value (15-LO) was “Nil”.
